Measurements from patent publication US8193175B2, “Ruthenium complexes for treating cancers” (Universite de Strasbourg, priority 2004, dated 2012).

What was measured:
RDM4 line = assay: Proliferation test (UptiBlue) on RDM4 line; assay type: cell-based, mouse; conditions: 72 hours
Protocol: (§1) The products are tested on different cell lines. The cells used are RDM4 from a murine T lymphoma and a MOLT-4 line originating from an acute lymphoblastic leukemia. These cancer lines both express the p53 protein, unlike the HL-60 cells from a human promyelocytary leukemia where, following deletion of its gene, p53 is absent.
(§2) All of these cells are cultivated in RPMI 1640-Glutamax, supplemented by 10% calf foetal serum heat inactivated at 56° C. for 30 minutes, 1 mM sodium pyruvate, 1 mM non-essential amino acids and 50 μg/mL gentamycine (Life Technologies, Cergy Pontoise, France). The cultures are kept in an incubator at 37° C. with a moisture saturated atmosphere, with 5% CO2.
(§3) This test uses the UptiBlue reagent (Interchim, Montluçon, France), metabolised by the living cells. The cells are incubated on plates with 96 wells with 10^4 cells/well (200 μL) with the product and cultivated for 72 hours. Then, 20 μL UptiBlue are added to each well. After 3 hours incubation, the fluorescence of the samples contained in the plates is measured at 590 nm (excitation at 560 nm), using a Fluorolite 1000 microplate reader (Dynex technologies, Issy-Les-Moulineaux, France).
The potential anti-cancers are first of all selected on the RDM4 line. The effect of the different organo-ruthenium compounds upon the cell viability is firstly determined by a proliferation test as a function of the product concentration. The activity of the compounds derived from Ru is compared to that of cisplatinum. The exposure of the RDM4 cells to these derivatives is translated by a dose-dependent reduction in their proliferation. Therefore, the effect is dependent upon the organic complex which surrounds the Ru nucleus. The inhibition concentration of the growth of 50% of the cells (IC50) is determined for each of the products. […] The ruthenium derivatives showing an excessive IC50 (>50 μM) were eliminated from the biological study.

NH32 = assay: Proliferation test (UptiBlue) on NH32; assay type: cell-based, human; conditions: 72 hours, unit inferred
Protocol: The influence of the p53 protein upon the effects induced by the products was determined by using the human lymphoblastoid line TK6 (p53 wild-type) and its NH32 variant of which the p53 gene was totally inactivated by double homologous recombination (Chuang et al, 1999). The TK6 cells originate from the American Tissue Culture Collection (ATGC, Manassas, Va., USA). The NH32 cells were supplied by H. L. Liber (Chuang et al, 1999).
as §2
(§4) This test uses the UptiBlue reagent (Interchim, Montluçon, France), metabolised by the living cells. The cells are incubated on plates with 96 wells with 10^4 cells/well (200 μL) with the product and cultivated for 72 hours. Then, 20 μL UptiBlue are added to each well. After 3 hours incubation, the fluorescence of the samples contained in the plates is measured at 590 nm (excitation at 560 nm), using a Fluorolite 1000 microplate reader (Dynex technologies, Issy-Les-Moulineaux, France). […]

MOLT-4 = assay: Proliferation test (UptiBlue) on MOLT-4; assay type: cell-based, human; conditions: 72 hours, UptiBlue; unit inferred; read-out: IC50 (Molt-4)
Protocol: as §1, §2, §4

WTK1 = assay: Proliferation test (UptiBlue) on WTK1; assay type: cell-based, human; conditions: 72 hours, unit inferred
Protocol: as §2, §3
(§5) Compound 9 on other cell lines gives the following IC50: • 9 (NH32):3; 9 (Molt-4):3.8; 9 (WTK1): 3; 9 (U-937): 3. • RDM4: lymphoma, mouse AKR • TK6: human lymphoblastoid line • NH32: TK6 variant, not expressing p53 (“p53 knock-out”) • WTK1: other TK6 variant, expressing a p53 mutated gene • MOLT-4: human T lymphoblastic leukemia • U-937: human promonocyte leukemia Proliferation Test for the RDM4 Line with each Compound

U-937 = assay: Proliferation test (UptiBlue) on U-937; assay type: cell-based, human; conditions: 72 hours, unit inferred
Protocol: as §2, §3, §5

RDM4 [1] = assay: Apoptosis by marking with Annexin-V on RDM4; assay type: cell-based, mouse
Protocol: Cell death is measured by a first specific marking of the apoptosis. The externalisation of the anionic phospholipids, normally located on the inner layer of the plasmic membrane, is one of the precocious markers of apoptosis (Martin et al, 1996). Annexin-V is a protein which fixes specifically onto the phosphatidylserines in the presence of calcium. When Annexin-V is coupled to a fluorochrome, it makes it possible to quantify the apoptotic cells by flux cytometry.
The control cells are treated with the equivalent volume of solvent (ethanol). […] After 72 hrs, the apoptosis rate is still as low as that of the control cells. On the other hand, with treatment at 45 μM, this rate already reaches 70% at 24 hrs and exceeds 99% after 48 hrs—a sign of significant apoptosis induction.

RDM4 [2] = assay: DNA fragmentation by marking with propidium iodure on RDM4; assay type: cell-based, mouse
Excerpt: A second specific marking of apoptosis is the fragmentation of DNA between the nucleosomes. The fragmented DNA is located in the apoptotic bodies in the terminal phase of apoptosis. This DNA is hypodiploid and so less in quantity than that present in normal cells. It can be quantified by flux cytometry after permeabilisation of the cell membranes and marking with PI. The quantity of DNA in a normal cell is 2n in the G0/G1 phase and 4n in the G2 phase. Therefore, the sub-G0 DNA in a quantity of less than 2n has a weaker fluorescence intensity.
This phenomenon tends to diminish after 48 hrs of treatment. On the other hand, when the cells are treated with 45 μM, the formation of hypodiploid particles, visualised by the sub-G0 DNA content, is less than 10% at 24 hrs and exceeds 50% at 48 hrs such as to reach 60% at 72 hrs. […] The quantity of hypodiploid particles in the control cells remains less than 4% over this same period.

[3] = tested on: A172, HS683, N2A, and SH5Y; assay: MTT test on glioblastoma and neuroblastoma lines; assay type: cell-based, human; conditions: 48 hrs treatment; compared with cisplatinum
Protocol: FIG. 1: The A172 cells were cultivated on plates with 96 wells in DMEM medium with 10% calf serum. At 30% confluence, the cells were treated for 48 hrs with cisplatinum or the various compounds derived from ruthenium in the concentrations indicated (1, 5, 15, 50 μM). The quantity of cells present in the wells was evaluated by an MTT (MTT, Sigma) test of which the products of the reaction are quantified with an Elisa plate reader (Metertech, USA) (490-650 nm). The results obtained were related to the values of the control condition (100% viability). The graphs show an average of 8 points with the typical spacings over one experiment representative of 4 carried out. The thick black line indicates the IC50 for each graph.
TABLE 2: a summary of the results obtained on various cell lines and primary glial cultures. The experiments were carried out under the same conditions as those described for the A172 cells. Each IC50 is an indicative value obtained over 4 independent experiments.
(§6) The first step towards characterising the anticancerous effects of the compounds derived from ruthenium consists of testing their activity on tumoral lines kept in culture and comparing these effects on lines which have different characteristics as regards resistance to the anticancer treatments. Two lines of human glioblastomas (A172, HS683) and two lines of neuroblastomas (N2A and SH5Y) were used in order to test the cytostatic effects of the compounds according to the invention. Cisplatinum was chosen as the cytotoxic comparison agent. In a first approach, an MTT test was used to measure the activity of a mitochondrial enzyme, and this gives an estimate of the number of cells. Then, the cytotoxic effects of the compounds according to the invention were characterised in greater detail by analysing the morphology of the nucleus and the activation of caspase 3—two markers of cell apoptosis.

A172 glioblastoma cells = assay: Nucleus morphology and caspase 3 activation in A172 cells; assay type: cell-based, human; conditions: for nuclear condensation and fragmentation: 48 hrs treatment
Excerpt: FIG. 2: A—The A172 cells were cultivated on glass slides. […] The cells were then fixed in 4% paraformaldehyde, permeabilised with 0.1% NP40 and marked with Hoechst dye (blue) and the anti-p20 antibody (active fragment of caspase 3, in red). The cells were then observed under the fluorescence microscope. B—Graphic representation of the number of cells with an apoptotic, fragmented or condensed nucleus. The bars are an average of two slides from one experiment representative of 3 carried out. C—In parallel, proteic extracts were prepared from cells treated with various drugs (cisplatinum 15 μM; CDR225 μM; CDR615 μM; CDR915 μM) and following denaturation the extracts were deposited on a !0% SDS-Page gel. After migration, the proteins were transferred onto nitrocellulose (Biorad, 0.2 μm) and the p20 fragment of the caspase 3 was detected by Western blot with an anti-p20 antibody (1/1000, R&D System).
as §6

Compound	IC50 (RDM4 line)	IC50 (NH32)	IC50 (MOLT-4)	IC50 (WTK1)	IC50 (U-937)	apoptosis rate (Annexin-V) (RDM4 [1]; 15 μM, up to 72 hrs)	apoptosis rate (Annexin-V) (RDM4 [1]; 45 μM, 24 hrs)	cell cycle distribution (propidium iodure) (RDM4 [2]; 15 μM, first two days)	hypodiploid particles (sub-G0 DNA content) (RDM4 [2]; 45 μM, 72 hrs)	reduction of the number of tumoral cells (MTT) [3]	nuclear condensation and fragmentation (A172 glioblastoma cells)	proteic levels of the active fragment of caspase 3 (Western blot) (A172 glioblastoma cells; cisplatinum 15 μM, CDR6 15 μM, CDR9 15 μM)
CC#N.CC#N.CC#N.CP(C)c1ccccc1.F[P-](F)(F)(F)(F)F.[Ru+][c]1ccccc1-c1ccccn1 [Compound 9, [Ru (C6H4-2-C5H4N) (PMe2Ph) (NCMe)3]PF6]	12 µM	3 µM	3.8 µM	3 µM	3 µM	does not shown any effect	70%	accumulation in the G0/G1 phase	60%	at a concentration similar to or lower than that of cisplatinum	induce nuclear condensation and fragmentation characteristic of apoptosis	increasing the proteic levels of the active fragment of caspase 3
CC#N.CC#N.Cc1ccnc(-c2cc(C)ccn2)c1.F[P-](F)(F)(F)(F)F.[Ru+][c]1ccccc1-c1ccccn1 [Compound 12, [Ru(C6H4-2-C5H4N)(4,4′-dimethyl-2,2′-bipyridine)(NCMe)2]PF6]	9 µM									at a concentration similar to or lower than that of cisplatinum	induce nuclear condensation and fragmentation characteristic of apoptosis	
CC#N.CC#N.CN(C)Cc1cccc[c]1[Ru+].F[P-](F)(F)(F)(F)F.c1ccc(-c2ccccn2)nc1 [Compound 13, [Ru-2-(CH2NMe2)—C6H4-(bipy) (NCMe)2]PF6]	11 µM											
